Tests used:
Assay type in all cases: cell-based
human TLR8 = human TLR8 (Homo sapiens (Human), UniProt Q9NR97); test: TLR8 inhibition reporter assay (HEK-Blue, SEAP); details: HEK-Blue cells overexpressing human TLR8, R848 15.9 μM stimulation
How it was run: (§1)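 Cells are treated with compound over a 0.05 nM–50 μM final range for 30 min at room temperature before agonist addition: gardiquimod at 7.5 μM for TLR7, R848 at 15.9 μM for TLR8, ODN2006 at 5 nM for TLR9. SEAP is measured after 22 h at 37 °C.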

human TLR7 = human TLR7 (Homo sapiens (Human), UniProt Q9NYK1); test: TLR7 inhibition reporter assay (HEK-Blue, SEAP); details: HEK-Blue cells overexpressing human TLR7, gardiquimod 7.5 μM stimulation
How it was run: as §1

human TLR9 = human TLR9 (Homo sapiens (Human), UniProt Q9NR96); test: TLR9 inhibition reporter assay (HEK-Blue, SEAP); details: HEK-Blue cells overexpressing human TLR9, ODN2006 5 nM stimulation
How it was run: as §1

Chain of human TLR7 (Q9NYK1 27-1049): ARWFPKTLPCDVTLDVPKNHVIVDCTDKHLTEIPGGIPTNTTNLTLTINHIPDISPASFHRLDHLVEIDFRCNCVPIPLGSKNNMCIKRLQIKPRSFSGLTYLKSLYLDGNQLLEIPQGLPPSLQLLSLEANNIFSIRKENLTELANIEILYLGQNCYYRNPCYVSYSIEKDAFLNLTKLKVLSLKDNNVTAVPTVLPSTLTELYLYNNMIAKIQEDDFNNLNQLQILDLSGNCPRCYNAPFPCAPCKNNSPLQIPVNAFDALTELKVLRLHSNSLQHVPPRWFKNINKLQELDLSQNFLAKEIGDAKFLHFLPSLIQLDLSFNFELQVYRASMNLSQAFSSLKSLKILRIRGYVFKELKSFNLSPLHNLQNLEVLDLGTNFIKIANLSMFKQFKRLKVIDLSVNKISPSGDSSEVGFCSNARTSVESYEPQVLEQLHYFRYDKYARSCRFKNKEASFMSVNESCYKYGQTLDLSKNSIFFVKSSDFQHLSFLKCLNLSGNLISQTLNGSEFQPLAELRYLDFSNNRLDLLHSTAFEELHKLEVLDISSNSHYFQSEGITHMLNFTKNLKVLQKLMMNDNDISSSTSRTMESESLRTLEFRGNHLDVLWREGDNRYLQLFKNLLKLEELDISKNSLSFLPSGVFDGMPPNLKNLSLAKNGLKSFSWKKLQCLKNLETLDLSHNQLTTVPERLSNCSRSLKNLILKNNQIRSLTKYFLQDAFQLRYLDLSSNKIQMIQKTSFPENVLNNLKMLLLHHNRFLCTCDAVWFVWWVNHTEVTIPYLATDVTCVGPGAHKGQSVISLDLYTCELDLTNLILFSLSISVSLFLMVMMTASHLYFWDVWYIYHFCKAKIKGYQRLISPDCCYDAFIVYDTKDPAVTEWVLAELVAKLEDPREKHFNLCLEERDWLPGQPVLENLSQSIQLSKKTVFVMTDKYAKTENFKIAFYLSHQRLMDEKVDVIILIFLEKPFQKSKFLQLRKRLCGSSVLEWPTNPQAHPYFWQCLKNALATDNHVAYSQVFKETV
Chain of human TLR9 (Q9NR96 26-1032): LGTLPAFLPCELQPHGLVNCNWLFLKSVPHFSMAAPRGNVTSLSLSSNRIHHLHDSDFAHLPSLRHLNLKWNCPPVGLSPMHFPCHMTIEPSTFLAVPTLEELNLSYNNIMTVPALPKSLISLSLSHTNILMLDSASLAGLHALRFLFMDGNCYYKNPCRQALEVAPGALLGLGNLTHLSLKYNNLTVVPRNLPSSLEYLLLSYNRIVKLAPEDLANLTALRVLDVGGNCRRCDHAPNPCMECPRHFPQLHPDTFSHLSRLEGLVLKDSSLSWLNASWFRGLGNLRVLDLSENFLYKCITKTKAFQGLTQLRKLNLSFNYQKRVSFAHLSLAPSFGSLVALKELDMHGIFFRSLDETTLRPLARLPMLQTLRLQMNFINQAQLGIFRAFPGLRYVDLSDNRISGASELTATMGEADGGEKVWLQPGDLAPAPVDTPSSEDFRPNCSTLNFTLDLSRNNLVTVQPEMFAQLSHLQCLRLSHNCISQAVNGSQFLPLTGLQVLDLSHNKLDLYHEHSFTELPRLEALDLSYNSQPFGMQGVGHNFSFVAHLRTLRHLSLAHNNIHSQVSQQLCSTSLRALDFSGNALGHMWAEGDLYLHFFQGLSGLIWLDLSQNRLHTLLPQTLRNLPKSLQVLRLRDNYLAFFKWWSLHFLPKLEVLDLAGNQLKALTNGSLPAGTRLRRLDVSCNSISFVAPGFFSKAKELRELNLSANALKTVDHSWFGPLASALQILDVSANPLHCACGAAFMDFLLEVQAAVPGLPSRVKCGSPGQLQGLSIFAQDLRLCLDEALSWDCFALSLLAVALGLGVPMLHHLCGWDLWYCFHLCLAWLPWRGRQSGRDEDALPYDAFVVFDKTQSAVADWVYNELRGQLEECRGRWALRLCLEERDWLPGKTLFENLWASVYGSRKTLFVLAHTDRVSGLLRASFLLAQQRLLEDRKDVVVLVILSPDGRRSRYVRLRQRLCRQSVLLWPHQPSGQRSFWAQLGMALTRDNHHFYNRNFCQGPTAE
Chain of human TLR8 (Q9NR97 27-1041): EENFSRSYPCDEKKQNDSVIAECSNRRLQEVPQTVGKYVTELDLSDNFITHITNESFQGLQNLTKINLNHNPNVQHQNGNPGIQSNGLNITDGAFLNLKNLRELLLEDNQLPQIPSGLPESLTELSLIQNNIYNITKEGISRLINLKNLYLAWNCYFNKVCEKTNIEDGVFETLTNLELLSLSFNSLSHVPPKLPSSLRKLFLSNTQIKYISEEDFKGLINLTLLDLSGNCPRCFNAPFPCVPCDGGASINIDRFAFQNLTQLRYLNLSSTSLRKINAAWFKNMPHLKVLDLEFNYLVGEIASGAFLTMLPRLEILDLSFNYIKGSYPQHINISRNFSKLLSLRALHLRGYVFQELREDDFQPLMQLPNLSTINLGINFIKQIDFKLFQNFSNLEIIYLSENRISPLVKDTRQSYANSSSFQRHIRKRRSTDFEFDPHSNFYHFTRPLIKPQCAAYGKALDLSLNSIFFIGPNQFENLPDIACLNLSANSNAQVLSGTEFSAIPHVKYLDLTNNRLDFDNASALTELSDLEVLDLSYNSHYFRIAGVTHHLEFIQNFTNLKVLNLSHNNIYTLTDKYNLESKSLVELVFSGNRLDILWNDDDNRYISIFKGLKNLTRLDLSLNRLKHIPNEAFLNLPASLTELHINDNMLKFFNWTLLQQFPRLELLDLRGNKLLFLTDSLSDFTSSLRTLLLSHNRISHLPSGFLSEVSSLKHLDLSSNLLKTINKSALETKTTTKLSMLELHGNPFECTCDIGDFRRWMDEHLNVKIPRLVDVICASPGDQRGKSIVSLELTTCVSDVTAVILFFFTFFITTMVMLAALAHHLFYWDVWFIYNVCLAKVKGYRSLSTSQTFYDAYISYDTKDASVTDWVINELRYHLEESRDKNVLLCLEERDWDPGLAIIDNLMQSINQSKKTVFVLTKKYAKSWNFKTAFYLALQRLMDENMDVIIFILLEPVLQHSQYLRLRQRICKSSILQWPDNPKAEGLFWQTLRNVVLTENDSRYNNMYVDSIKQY

CCc1c(-c2ccnc3[nH]ncc23)[nH]c2ccc(-c3ccc(N4CCN(C)CC4)cc3)cc12 [Example 384, 4-(3-ethyl-5-(4-(4-methylpiperazin-1-yl)phenyl)-1H-indol-2-yl)-1H-pyrazolo[3,4-b]pyridine]
IC50 (human TLR8): 12 nM
IC50 (human TLR7): 145 nM
IC50 (human TLR9): 1950 nM

COc1ccc(-c2[nH]c3ccc(-c4ccc(NC5CCN(C(C)C)CC5)cc4)cc3c2C(C)C)cc1OC [Example 385, N-(4-(2-(3,4-dimethoxyphenyl)-3-isopropyl-1H-indol-5-yl)phenyl)-1-isopropylpiperidin-4-amine]
IC50 (human TLR8): 30 nM
IC50 (human TLR7): 181 nM
IC50 (human TLR9): 5890 nM

COc1ccc(-c2[nH]c3ccc(-c4ccc(NCC5CCN(C)C5)cc4)cc3c2C(C)C)cc1OC (stereo not drawn) [Example 386, 4-(2-(3,4-dimethoxyphenyl)-3-isopropyl-1H-indol-5-yl)-N-((1-methylpyrrolidin-3-yl)methyl)aniline]
IC50 (human TLR8): 9.6 nM
IC50 (human TLR7): 169 nM
IC50 (human TLR9): 3710 nM

COc1ccc(-c2[nH]c3ccc(-c4ccc(OC5CCN(C)CC5)cc4)cc3c2C(C)C)cc1OC [Example 387, 2-(3,4-dimethoxyphenyl)-3-isopropyl-5-(4-((1-methylpiperidin-4-yl)oxy)phenyl)-1H-indole]
IC50 (human TLR8): 22 nM
IC50 (human TLR7): 34 nM
IC50 (human TLR9): 3900 nM

COc1ccc(-c2[nH]c3ccc(-c4ccc(OC5CCN(CC(C)C)CC5)cc4)cc3c2C(C)C)cc1OC [Example 388, 2-(3,4-dimethoxyphenyl)-5-(4-((1-isobutylpiperidin-4-yl)oxy)phenyl)-3-isopropyl-1H-indole]
IC50 (human TLR8): 349 nM
IC50 (human TLR7): 636 nM
IC50 (human TLR9): > 50000 nM

COc1ccc(-c2[nH]c3ccc(-c4ccc(OC5CCN(C(C)C)CC5)cc4)cc3c2C(C)C)cc1OC [Example 389, 2-(3,4-dimethoxyphenyl)-3-isopropyl-5-(4-((1-isopropylpiperidin-4-yl)oxy)phenyl)-1H-indole]
IC50 (human TLR8): 126 nM
IC50 (human TLR7): 338 nM
IC50 (human TLR9): 2360 nM

COc1ccc(-c2[nH]c3ccc(-c4ccc(N5CCN(C(C)=O)CC5)nc4)cc3c2C(C)C)cc1OC [Example 390, 1-(4-(5-(2-(3,4-dimethoxyphenyl)-3-isopropyl-1H-indol-5-yl)pyridin-2-yl)piperazin-1-yl)ethan-1-one]
IC50 (human TLR8): 44 nM
IC50 (human TLR7): 969 nM
IC50 (human TLR9): > 50000 nM

COc1ccc(-c2[nH]c3ccc(-c4ccc(N5CCN(C)CC5)nc4)cc3c2C(C)C)cc1OC [Example 392, 2-(3,4-dimethoxyphenyl)-3-isopropyl-5-(6-(4-methylpiperazin-1-yl)pyridin-3-yl)-1H-indole]
IC50 (human TLR8): 7.5 nM
IC50 (human TLR7): 32 nM
IC50 (human TLR9): 1070 nM

COc1ccc(-c2[nH]c3ccc(-c4ccc(N5CCN(C(C)C)CC5)nc4)cc3c2C(C)C)cc1OC [Example 393, 2-(3,4-dimethoxyphenyl)-3-isopropyl-5-(6-(4-isopropylpiperazin-1-yl)pyridin-3-yl)-1H-indole]
IC50 (human TLR8): 11 nM
IC50 (human TLR7): 60 nM
IC50 (human TLR9): 666 nM

CC(C)c1c(-c2ccnc3[nH]ncc23)[nH]c2ccc(-c3ccc4[nH]c(=O)cc(O)c4c3)cc12 [Example 394, 4-hydroxy-6-(3-isopropyl-2-(1H-pyrazolo[3,4-b]pyridin-4-yl)-1H-indol-5-yl)quinolin-2(1H)-one]
IC50 (human TLR8): 218 nM
IC50 (human TLR7): 919 nM
IC50 (human TLR9): > 50000 nM

CC(C)c1c(-c2ccnc3[nH]ncc23)[nH]c2ccc(-c3ccc4c(cnn4C)c3)cc12 [Example 395, 4-(3-isopropyl-5-(1-methyl-1H-indazol-5-yl)-1H-indol-2-yl)-1H-pyrazolo[3,4-b]pyridine]
IC50 (human TLR8): 111 nM
IC50 (human TLR7): 486 nM
IC50 (human TLR9): 44000 nM

COc1ccc(-c2[nH]c3ccc(-c4cccc(-c5cccc(CN6CCOCC6)c5)c4)cc3c2C(C)C)cc1OC [Example 396, 4-((3′-(2-(3,4-dimethoxyphenyl)-3-isopropyl-1H-indol-5-yl)-[1,1′-biphenyl]-3-yl)methyl)morpholine]
IC50 (human TLR8): 519 nM
IC50 (human TLR7): 2310 nM
IC50 (human TLR9): > 50000 nM

COc1ccc(-c2[nH]c3ccc(-c4cccc(-c5cccc(CN(C)C)c5)c4)cc3c2C(C)C)cc1OC [Example 397, 1-(3′-(2-(3,4-dimethoxyphenyl)-3-isopropyl-1H-indol-5-yl)-[1,1′-biphenyl]-3-yl)-N,N-dimethylmethanamine]
IC50 (human TLR8): 101 nM
IC50 (human TLR7): 3300 nM
IC50 (human TLR9): 4120 nM

COc1ccc(-c2[nH]c3ccc(-c4ccc(CCCN5CCOCC5)cc4)cc3c2C(C)C)cc1OC [Example 398, 4-(3-(4-(2-(3,4-dimethoxyphenyl)-3-isopropyl-1H-indol-5-yl)phenyl)propyl)morpholine]
IC50 (human TLR8): 2120 nM
IC50 (human TLR7): 559 nM
IC50 (human TLR9): 2550 nM

CCc1c(-c2ccc(OC)c(OC)c2)[nH]c2ccc(-c3ccc(N4CCNCC4)cc3)cc12 [Example 399, 2-(3,4-dimethoxyphenyl)-3-ethyl-5-(4-(piperazin-1-yl)phenyl)-1H-indole]
IC50 (human TLR8): 28 nM
IC50 (human TLR7): 947 nM
IC50 (human TLR9): 721 nM

COc1ccc(-c2[nH]c3ccc(-c4ccc(NCCCN(C)C)cc4)cc3c2C(C)C)cc1OC [Example 400, N1-(4-(2-(3,4-dimethoxyphenyl)-3-isopropyl-1H-indol-5-yl)phenyl)-N3,N3-dimethylpropane-1,3-diamine]
IC50 (human TLR8): 35 nM
IC50 (human TLR7): 165 nM
IC50 (human TLR9): 2660 nM

COc1ccc(-c2[nH]c3ccc(-c4ccc(NCCN5CCOCC5)cc4)cc3c2C(C)C)cc1OC [Example 401, 4-(2-(3,4-dimethoxyphenyl)-3-isopropyl-1H-indol-5-yl)-N-(2-morpholinoethyl)aniline]
IC50 (human TLR8): 77 nM
IC50 (human TLR7): 541 nM
IC50 (human TLR9): 43300 nM

COc1ccc(-c2[nH]c3ccc(-c4ccc(NC5CCCNC5)cc4)cc3c2C(C)C)cc1OC (stereo not drawn) [Example 402, N-(4-(2-(3,4-dimethoxyphenyl)-3-isopropyl-1H-indol-5-yl)phenyl)piperidin-3-amine]
IC50 (human TLR8): 21 nM
IC50 (human TLR7): 200 nM
IC50 (human TLR9): 2320 nM

COc1ccc(-c2[nH]c3ccc(-c4ccc(N5CCN(C6CCCC6)CC5)cc4)cc3c2C(C)C)cc1OC [Example 403, 5-(4-(4-cyclopentylpiperazin-1-yl)phenyl)-2-(3,4-dimethoxyphenyl)-3-isopropyl-1H-indole]
IC50 (human TLR8): 312 nM
IC50 (human TLR7): 570 nM
IC50 (human TLR9): > 50000 nM

CNCCNc1ccc(-c2ccc3[nH]c(-c4ccc(OC)c(OC)c4)c(C(C)C)c3c2)cc1 [Example 404, N1-(4-(2-(3,4-dimethoxyphenyl)-3-isopropyl-1H-indol-5-yl)phenyl)-N2-methylethane-1,2-diamine]
IC50 (human TLR8): 38 nM
IC50 (human TLR7): 246 nM
IC50 (human TLR9): 9680 nM

COc1ccc(-c2[nH]c3ccc(-c4ccc(N5CCC(c6ccncc6)CC5)cc4)cc3c2C(C)C)cc1OC [Example 405, 2-(3,4-dimethoxyphenyl)-3-isopropyl-5-(4-(4-(pyridin-4-yl)piperidin-1-yl)phenyl)-1H-indole]
IC50 (human TLR8): 464 nM
IC50 (human TLR7): 1560 nM
IC50 (human TLR9): > 50000 nM

COc1ccc(-c2[nH]c3ccc(-c4ccc(-c5cccnc5)cc4)cc3c2C(C)C)cc1OC [Example 406, 2-(3,4-dimethoxyphenyl)-3-isopropyl-5-(4-(pyridin-3-yl)phenyl)-1H-indole]
IC50 (human TLR8): 2220 nM
IC50 (human TLR7): 2610 nM
IC50 (human TLR9): > 50000 nM

COc1ccc(-c2[nH]c3ccc(-c4ccc(C5=CCNCC5)cc4)cc3c2C)cc1OC [Example 408, 2-(3,4-dimethoxyphenyl)-3-methyl-5-(4-(1,2,3,6-tetrahydropyridin-4-yl)phenyl)-1H-indole]
IC50 (human TLR8): > 50000 nM
IC50 (human TLR7): 8620 nM
IC50 (human TLR9): 729 nM

COc1ccc(-c2[nH]c3ccc(-c4cccc(-c5ccc6nonc6c5)c4)cc3c2C(C)C)cc1OC [Example 409, 5-(3-(2-(3,4-dimethoxyphenyl)-3-isopropyl-1H-indol-5-yl)phenyl)benzo[c][1,2,5]oxadiazole]
IC50 (human TLR8): 429 nM
IC50 (human TLR7): 1280 nM
IC50 (human TLR9): > 50000 nM

COc1ccc(-c2[nH]c3ccc(-c4ccc(OC5CCNCC5)cc4)cc3c2C(C)C)cc1OC [Example 410, 2-(3,4-dimethoxyphenyl)-3-isopropyl-5-(4-(piperidin-4-yloxy)phenyl)-1H-indole]
IC50 (human TLR8): 55 nM
IC50 (human TLR7): 274 nM
IC50 (human TLR9): 4910 nM

COc1ccc(-c2[nH]c3ccc(-c4cccc(N5CCNCC5)c4)cc3c2C(C)C)cc1OC [Example 411, 2-(3,4-dimethoxyphenyl)-3-isopropyl-5-(3-(piperazin-1-yl)phenyl)-1H-indole]
IC50 (human TLR8): 96 nM
IC50 (human TLR7): 604 nM
IC50 (human TLR9): 8430 nM

COc1ccc(-c2[nH]c3ccc(-c4ccc(OCCN5CCCC5)cc4)cc3c2C(C)C)cc1OC [Example 412, 2-(3,4-dimethoxyphenyl)-3-isopropyl-5-(4-(2-(pyrrolidin-1-yl)ethoxy)phenyl)-1H-indole]
IC50 (human TLR8): 26 nM
IC50 (human TLR7): 34 nM
IC50 (human TLR9): > 50000 nM

COc1ccc(-c2[nH]c3ccc(-c4ccc(CN5CCOCC5)cc4)cc3c2C(C)C)cc1OC [Example 413, 4-(4-(2-(3,4-dimethoxyphenyl)-3-isopropyl-1H-indol-5-yl)benzyl)morpholine]
IC50 (human TLR8): 38 nM
IC50 (human TLR7): 440 nM
IC50 (human TLR9): > 50000 nM

CC(C)c1c(-c2ccnc3[nH]ncc23)[nH]c2ccc(-c3cccc(CO)c3)cc12 [Example 414, (3-(3-isopropyl-2-(1H-pyrazolo[3,4-b]pyridin-4-yl)-1H-indol-5-yl)phenyl)methanol]
IC50 (human TLR8): 63 nM
IC50 (human TLR7): 771 nM
IC50 (human TLR9): > 50000 nM

CC(C)c1c(-c2ccnc3[nH]ncc23)[nH]c2ccc(-c3cccc(S(N)(=O)=O)c3)cc12 [Example 415, 3-(3-isopropyl-2-(1H-pyrazolo[3,4-b]pyridin-4-yl)-1H-indol-5-yl)benzenesulfonamide]
IC50 (human TLR8): 56 nM
IC50 (human TLR7): 820 nM
IC50 (human TLR9): > 50000 nM
